Laboratory results taken from ChEMBL document CHEMBL1201862, “PubChem BioAssay data set” (2004).
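48-hour exposure; five concentrations; linearly interpolated endpoints. Here, GI50 denotes the concentration required for 50% inhibition of growth.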 Calls of active or inactive are those of the source. No stated cut-off is given here; in the data, active = GI50 up to about 1.1 µM and inactive = higher.

Key:
Assay in all cases: NCI tumour cell line growth inhibition, 48 h
[1] = tested on: A549
[2] = tested on: CAKI-1
[3] = tested on: HL-60
[4] = tested on: HT-29
[5] = tested on: LOX IMVI
[6] = tested on: Malme-3M
[7] = tested on: NCI-H460
[8] = tested on: OVCAR-3
[9] = tested on: OVCAR-8
[10] = tested on: SF-268
[11] = tested on: SK-MEL-28
[12] = tested on: SN12C
[13] = tested on: SNB-75
[14] = tested on: UACC-62
[15] = tested on: UO-31
[16] = tested on: SNB-19

Measured: GI50

CN(C)CC1CCCC/C1=N/OC(=O)c1ccc(Cl)cc1 (stereo not drawn)
inactive: [1] > 100 µM | [2] > 100 µM | [3] > 100 µM | [4] > 100 µM | [5] > 100 µM | [6] > 100 µM | [7] > 100 µM | [8] > 100 µM | [9] > 100 µM | [10] > 100 µM | [11] > 100 µM | [12] > 100 µM | [13] > 100 µM | [14] > 100 µM | [15] > 100 µM

C=CCNC(=S)N1c2ccccc2NC(=O)CC1C (stereo not drawn)
inactive: [1] > 100 µM | [3] > 100 µM | [4] > 100 µM | [5] > 100 µM | [6] > 100 µM | [7] > 100 µM | [8] > 100 µM | [9] > 100 µM | [10] > 100 µM | [11] > 100 µM | [12] > 100 µM | [16] > 100 µM | [13] 54.6 µM | [14] > 100 µM | [15] > 100 µM

CCNC(=O)O/N=C1/C=C2CC[C@@H]3C(CC[C@@]4(C)C3CC[C@@H]4OC(=O)NCC)[C@@]2(C)CC1 (stereo partly drawn)
inactive: [1] 3.98 µM | [2] 4.26 µM | [4] 3.27 µM | [5] 3.32 µM | [7] 3.46 µM | [9] 4.32 µM | [11] 3.32 µM | [12] 4.28 µM | [16] 2.48 µM | [13] 2.09 µM | [14] 2.67 µM | [15] 1.78 µM

C/N=C(\SC)N(C)c1nc(=[N+](C)C)ss1.[O-][Cl+3]([O-])([O-])[O-]
inactive: [1] > 100 µM | [2] 52 µM | [3] 7.38 µM | [4] 4.22 µM | [5] > 100 µM | [9] > 100 µM | [10] > 100 µM | [11] > 100 µM | [12] > 100 µM | [16] > 100 µM | [13] 3.81 µM | [14] 4.9 µM | [15] 42.2 µM

CC(C)c1cccc(C(C)C)c1NC(=O)C(=O)C1SC(=S)NC1=O (stereo not drawn)
inactive: [1] > 100 µM | [2] > 100 µM | [3] > 100 µM | [4] > 100 µM | [5] > 100 µM | [6] > 100 µM | [7] > 100 µM | [9] > 100 µM | [10] > 100 µM | [11] > 100 µM | [12] > 100 µM | [16] > 100 µM | [13] > 100 µM | [14] > 100 µM | [15] > 100 µM

O=c1oc2c3ccc4ccccc4c3n(CCN3CCCCC3)c2c2ccccc12
inactive: [1] 15.6 µM | [2] 48.2 µM | [3] 89.5 µM | [4] 10.1 µM | [5] 31.1 µM | [6] 30.3 µM | [7] 4.12 µM | [8] 18.5 µM | [9] 19 µM | [10] 31.4 µM | [11] > 71.6 µM | [12] > 100 µM | [16] 28.8 µM | [13] 4.98 µM | [14] 36.3 µM | [15] 49.4 µM

COc1ccc(/C=C2\CCC(CCN3CCOCC3)C2=O)cc1 (stereo not drawn)
inactive: [1] > 100 µM | [2] > 100 µM | [3] > 100 µM | [4] > 100 µM | [5] > 100 µM | [6] > 100 µM | [7] > 100 µM | [8] > 100 µM | [9] > 100 µM | [10] > 100 µM | [11] > 100 µM | [12] > 100 µM | [16] > 100 µM | [13] > 100 µM | [14] > 100 µM | [15] > 100 µM

O=c1cccccc1NCCCCCCCNc1cccccc1=O
inactive: [1] 21.8 µM | [2] 45.6 µM | [3] 11.1 µM | [4] 55.5 µM | [5] 12.1 µM | [6] 29.2 µM | [7] 29.7 µM | [8] 24.5 µM | [9] 31.6 µM | [10] 43.5 µM | [12] 49.3 µM | [16] 33.7 µM | [13] 95.9 µM | [14] 19.4 µM | [15] 25.3 µM

Cn1c(=O)c2nc(-c3ccc(Cl)cc3)oc2n(C)c1=O
inactive: [1] > 100 µM | [2] > 100 µM | [3] > 100 µM | [4] > 100 µM | [5] > 100 µM | [6] > 100 µM | [7] > 100 µM | [8] > 100 µM | [9] > 100 µM | [10] > 100 µM | [11] > 100 µM | [12] > 100 µM | [16] > 100 µM | [13] > 100 µM | [14] > 100 µM | [15] > 100 µM

CC1C(=O)N(C)C2(CO)C(=O)O[C@H](C)C12O (stereo partly drawn)
inactive: [1] > 100 µM | [2] > 100 µM | [4] > 100 µM | [6] > 100 µM | [8] > 100 µM | [9] > 100 µM | [10] > 100 µM | [11] > 100 µM | [16] > 100 µM | [14] > 100 µM | [15] > 100 µM

Cc1c(Cl)cccc1NC(=O)CC1C(=O)Nc2ccccc2S1(=O)=O (stereo not drawn)
inactive: [1] 18.2 µM | [2] 19.9 µM | [3] 2.72 µM | [4] 17.6 µM | [5] 14.6 µM | [6] 17.6 µM | [7] 14.7 µM | [8] 16.6 µM | [9] 18.4 µM | [10] 19.6 µM | [11] 18.6 µM | [12] 16.7 µM | [16] 33 µM | [13] 17.2 µM | [14] 7.52 µM | [15] 17.1 µM

C#CC[C@]12CC(=O)CC[C@H]1CC(=O)C2
inactive: [1] > 100 µM | [2] > 100 µM | [3] > 100 µM | [6] > 100 µM | [7] > 100 µM | [8] > 100 µM | [9] > 100 µM | [10] > 100 µM | [11] > 100 µM | [12] > 100 µM | [16] > 100 µM | [13] > 100 µM | [14] > 100 µM | [15] > 100 µM

N=C(N)N/N=C(/CCN1CCCC1)CC(c1ccccc1)c1c(O)c2ccccc2oc1=O (stereo not drawn)
inactive: [1] > 100 µM | [2] > 100 µM | [4] > 100 µM | [5] > 100 µM | [6] > 100 µM | [8] > 100 µM | [10] > 100 µM | [11] > 100 µM | [12] > 100 µM | [16] > 100 µM | [13] > 100 µM | [14] > 100 µM

Cc1ccc(NC(=O)SCCC(=O)O)cc1NC(=O)SCCC(=O)O
inactive: [1] > 100 µM | [2] > 100 µM | [3] > 100 µM | [4] > 100 µM | [5] > 100 µM | [7] > 100 µM | [8] > 100 µM | [9] > 100 µM | [10] > 100 µM | [11] > 100 µM | [12] > 100 µM | [16] > 100 µM | [15] > 100 µM

CCOC(=O)/C(=C/c1ccc(OC)c(OC)c1)C(=O)c1ccccc1
inactive: [1] 28.2 µM | [2] 14.7 µM | [4] 13.6 µM | [6] 76.6 µM | [7] 33.3 µM | [8] 18 µM | [9] 22.3 µM | [10] 14.8 µM | [11] 13.5 µM | [12] > 10 µM | [16] 15.8 µM | [13] 12.4 µM | [14] 13.2 µM | [15] 14.4 µM

C=C1CCc2occ(C)c2C2C1C1=C(CC(C)C1=O)C1OC12C (stereo not drawn)
inactive: [1] > 100 µM | [4] > 100 µM | [5] > 100 µM | [6] > 100 µM | [7] > 100 µM | [8] > 100 µM | [9] > 100 µM | [10] > 100 µM | [11] > 100 µM | [12] > 100 µM | [16] 26.5 µM | [13] 34.7 µM | [14] 52 µM | [15] 4.03 µM

Cc1ccc(Oc2ccccc2N)cc1
inactive: [1] 36.9 µM | [3] 10.4 µM | [4] 37.2 µM | [5] 23 µM | [6] > 100 µM | [7] 37.8 µM | [8] 15.8 µM | [9] 79.3 µM | [10] 46.1 µM | [11] 18.2 µM | [12] 31.7 µM | [16] 78.5 µM | [13] 16 µM | [14] 60.1 µM | [15] 12.4 µM

Cc1[nH]c2ccccc2c1CC/C(=N\Nc1ccccc1)c1ccccc1
inactive: [1] > 100 µM | [2] > 100 µM | [3] > 100 µM | [4] > 100 µM | [6] > 100 µM | [7] > 100 µM | [8] > 100 µM | [9] > 100 µM | [11] > 100 µM | [13] 28.7 µM | [14] > 100 µM | [15] > 100 µM

COC(=O)NN1C(C)=C(C(=O)OC)C2(C#N)C(C(=O)OC)=C(C)N(NC(=O)OC)C12N (stereo not drawn)
inactive: [1] > 100 µM | [2] > 100 µM | [3] > 100 µM | [4] > 100 µM | [5] > 100 µM | [6] > 100 µM | [7] > 100 µM | [9] > 100 µM | [10] > 100 µM | [11] > 100 µM | [12] > 100 µM | [16] > 100 µM | [14] > 100 µM | [15] > 100 µM
